Measurements reported in publication PMC2815200 (Biochemical pharmacology, 2009).

How the values were obtained:
human A3AR = target: T1, human A3AR (Homo sapiens, UniProt P0DMS8); assay type: binding; details: [^125I]MRS5127 0.2 nM, 2 h room temperature, Cheng-Prusoff
T1 sequence (P0DMS8 1-318): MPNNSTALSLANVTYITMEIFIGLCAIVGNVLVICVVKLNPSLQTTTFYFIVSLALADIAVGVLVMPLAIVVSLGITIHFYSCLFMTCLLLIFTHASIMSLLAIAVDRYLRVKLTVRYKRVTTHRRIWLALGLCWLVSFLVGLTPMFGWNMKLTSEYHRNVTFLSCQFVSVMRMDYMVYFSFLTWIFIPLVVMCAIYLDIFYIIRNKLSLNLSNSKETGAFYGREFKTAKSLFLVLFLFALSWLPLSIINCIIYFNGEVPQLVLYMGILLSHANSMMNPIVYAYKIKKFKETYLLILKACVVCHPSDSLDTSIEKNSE

hA3AR [1] = details: cited from earlier work
mA1AR = target: T2, mA1AR (Mus musculus, UniProt Q60612); assay: Competition binding of MRS5127 at mouse A1AR
T2 sequence (Q60612 1-326): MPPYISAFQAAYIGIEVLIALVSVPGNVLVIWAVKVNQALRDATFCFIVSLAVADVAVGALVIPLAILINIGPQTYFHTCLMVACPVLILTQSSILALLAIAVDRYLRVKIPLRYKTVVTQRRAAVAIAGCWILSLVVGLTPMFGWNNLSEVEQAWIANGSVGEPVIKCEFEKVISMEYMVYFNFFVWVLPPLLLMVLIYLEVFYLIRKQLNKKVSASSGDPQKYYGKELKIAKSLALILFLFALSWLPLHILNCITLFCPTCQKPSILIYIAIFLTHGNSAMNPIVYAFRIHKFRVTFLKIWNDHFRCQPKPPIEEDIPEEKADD

hA3 = details: read-out: affinity; hA3 ref 25, 26; cited from earlier work
hA3AR [2] = details: CHO cell membranes expressing hA3AR ref 25; cited from earlier work
dog A3AR = target: T3, dog A3AR (Canis lupus familiaris, UniProt Q28309); assay: cAMP accumulation assay, HEK 293 cells expressing dog A3AR; assay type: cell-based; details: forskolin 10 μM, 15 min, Ro 20-1724 20 μM
T3 sequence (Q28309 1-314): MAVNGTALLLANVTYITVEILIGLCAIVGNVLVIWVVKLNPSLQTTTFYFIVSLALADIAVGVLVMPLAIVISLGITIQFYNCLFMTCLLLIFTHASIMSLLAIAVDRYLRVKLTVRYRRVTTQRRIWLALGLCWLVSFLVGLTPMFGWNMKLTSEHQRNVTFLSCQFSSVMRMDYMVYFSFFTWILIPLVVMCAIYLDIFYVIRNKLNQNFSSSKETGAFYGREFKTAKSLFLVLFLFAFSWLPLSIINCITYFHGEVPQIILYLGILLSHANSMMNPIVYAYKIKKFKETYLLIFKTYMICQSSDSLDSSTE

mouse A2AAR = mouse A2AAR (Mus musculus, UniProt Q60613); assay: Competition binding of MRS5127 at mouse A2AAR; details: [^3H]CGS21680 10 nM, HEK 293 membranes
Sequence of mouse A2AAR (Q60613 whole entry): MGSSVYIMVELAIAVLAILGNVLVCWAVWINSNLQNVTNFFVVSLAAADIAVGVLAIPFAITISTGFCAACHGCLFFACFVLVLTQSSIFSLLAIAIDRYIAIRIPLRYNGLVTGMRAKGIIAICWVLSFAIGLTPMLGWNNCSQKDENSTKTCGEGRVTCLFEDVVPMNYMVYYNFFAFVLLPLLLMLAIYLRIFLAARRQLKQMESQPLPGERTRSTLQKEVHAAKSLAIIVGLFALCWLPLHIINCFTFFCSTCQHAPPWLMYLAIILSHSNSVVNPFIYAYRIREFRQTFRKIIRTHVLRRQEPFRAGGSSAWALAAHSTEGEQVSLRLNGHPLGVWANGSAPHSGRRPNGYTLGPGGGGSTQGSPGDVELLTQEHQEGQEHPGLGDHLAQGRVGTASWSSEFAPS

rabbit A3AR = target: T4, rabbit A3AR (Oryctolagus cuniculus, UniProt O02667); assay: cAMP accumulation assay, HEK 293 cells expressing rabbit A3AR; assay type: cell-based; details: forskolin 10 μM, 15 min, Ro 20-1724 20 μM
T4 sequence (O02667 1-319): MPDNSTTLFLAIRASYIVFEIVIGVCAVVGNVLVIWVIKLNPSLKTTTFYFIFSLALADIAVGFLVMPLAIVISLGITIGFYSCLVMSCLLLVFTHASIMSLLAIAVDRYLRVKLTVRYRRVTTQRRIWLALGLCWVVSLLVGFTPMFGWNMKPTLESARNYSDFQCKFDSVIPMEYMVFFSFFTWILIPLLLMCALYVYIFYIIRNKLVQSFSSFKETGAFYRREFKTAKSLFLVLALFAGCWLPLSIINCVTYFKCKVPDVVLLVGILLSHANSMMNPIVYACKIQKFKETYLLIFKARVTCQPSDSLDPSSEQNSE

mouse A3AR = target: T5, mouse A3AR (Mus musculus, UniProt Q61618); assay: cAMP accumulation assay, HEK 293 cells expressing mouse A3AR; assay type: cell-based; details: forskolin 10 μM, 15 min, Ro 20-1724 20 μM
T5 sequence (Q61618 1-319): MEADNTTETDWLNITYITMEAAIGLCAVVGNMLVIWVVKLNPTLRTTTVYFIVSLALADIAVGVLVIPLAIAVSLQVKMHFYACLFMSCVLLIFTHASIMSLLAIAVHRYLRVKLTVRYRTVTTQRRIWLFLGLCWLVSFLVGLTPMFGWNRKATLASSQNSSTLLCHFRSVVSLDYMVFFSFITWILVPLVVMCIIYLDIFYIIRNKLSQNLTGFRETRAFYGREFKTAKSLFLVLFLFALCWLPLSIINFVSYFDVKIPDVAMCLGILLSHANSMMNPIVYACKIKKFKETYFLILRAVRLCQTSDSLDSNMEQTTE

mouse A2BAR = target: T6, mouse A2BAR (Mus musculus, UniProt Q60614); assay: Competition binding of MRS5127 at mouse A2BAR; details: [^3H]MRS1754 2 nM, HEK 293 membranes
T6 sequence (Q60614 1-332): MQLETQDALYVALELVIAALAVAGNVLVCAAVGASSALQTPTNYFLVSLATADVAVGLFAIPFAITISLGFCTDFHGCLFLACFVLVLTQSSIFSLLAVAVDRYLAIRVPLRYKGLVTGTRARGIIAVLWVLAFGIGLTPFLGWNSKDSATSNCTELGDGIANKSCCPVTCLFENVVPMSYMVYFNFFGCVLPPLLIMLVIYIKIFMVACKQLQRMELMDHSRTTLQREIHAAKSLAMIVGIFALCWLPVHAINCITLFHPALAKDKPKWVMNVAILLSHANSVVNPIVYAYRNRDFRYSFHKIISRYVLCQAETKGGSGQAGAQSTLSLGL

Row | SMILES | Ki (human A3AR) [nM] | efficacy in comparison to NECA (hA3AR [1]; cAMP accumulation, human receptors ref 26) | efficacy compared to the full agonist NECA (hA3AR [1]; cAMP, transfected cells ref 26) [%] | affinity for mA1AR lower compared to the mA3AR (mA1AR; mA1AR versus mA3AR) | Ki (mA1AR; read-out: affinity (Ki value), [^125I]I-AB-MECA 0.3 nM, HEK 293 membranes) [nM] | Ki (hA3) [nM] | functional character by Schild analysis of [^35S]GTPγS binding (hA3AR [2]) | EC50 (dog A3AR) [nM] | binding to mouse A2AAR (mouse A2AAR) | EC50 (rabbit A3AR) [nM] | EC50 (mouse A3AR) [nM] | binding to mouse A2BAR (mouse A2BAR)
1 | CCCOC(=O)c1c(-c2ccccc2)nc(CC)c(C(=O)SCC)c1CCC [MRS1523, 5-propyl-2-ethyl-4-propyl-3-(ethylsulfanylcarbonyl)-6-phenylpyridine-5-carboxylate] | 246 ± 66 | – | – | – | – | – | – | – | – | – | – | –
2 | O[C@@H]1[C@H](O)[C@@H]2C[C@@H]2[C@H]1n1cnc2c(NCc3cccc(I)c3)nc(Cl)nc21 [MRS5127, (1′R,2′R,3′S,4′R,5′S)-4′-[2-chloro-6-(3-iodobenzylamino)-purine]-2′,3′-O-dihydroxybicyclo-[3.1.0]hexane] | – | roughly half efficacy | 45 | ~ 30 fold | 140 ± 26 | 1.44 ± 0.6 | antagonist | 2.79 ± 0.41 | did not bind | 1.53 ± 0.59 | 1.34 ± 0.07 | did not bind
